Results taken from article PMC12610274, “Identification of Marrubiin as a Cathepsin C Inhibitor for Treating Rheumatoid Arthritis” (Molecules, 2025).

How the values were obtained:
CTSS = target: T1, CTSS (Homo sapiens, UniProt P25774); test: Human recombinant cathepsins isolated enzyme assay, CTSS; type: biochemical; settings: read-out: CTSS Enz (IC50: μM)
T1 construct: purchased R&D Systems
Description: The protocol for evaluating the inhibitory potency of compounds against other cathepsins referred to the CTSC activity assay. Recombinant human CTSB, CTSL, CTSS and CTSK for testing were also purchased from R&D Systems Biotechnology Company. Recombinant human Cat G, NE, and PR3 For testing were purchased from MedChemExpress. A multi-functional microplate reader was used to measure the absorption of Z-Leu-Arg-AMC at excitation/emission wavelengths of 380/460 nm to assess the activity changes of CTSB and CTSL, while the absorption of MCA-Arg-Pro-Lys-Pro-Val-Glu-NVAL-Trp-Arg-Lys(DNP)-NH2 at 320/405 nm was measured to evaluate the activity changes of CTSS and CTSK. Different assay buffers were prepared for diluting samples and measuring the activities of specific NSPs: a buffer containing 50 mM Tris and 750 mM NaCl (pH 7.4) was used for NE and PR3; a buffer containing 50 mM Tris, 750 mM NaCl, 5 mM EDTA (pH 7.4) was used for Cat G; and a buffer containing 25 mM MES, 50 mM NaCl, 5 mM DTT (pH 6.0) was used for CTSC. Synthetic substrates were employed to assess the activities of NSPs and CTSC: H-Gly-Arg-AMC for CTSC, N-MeSuc-Ala-Ala-Pro-Val-pNA for NE, aminobenzoyl-Val-Ala-Asp-Cys-Ala-Asp-Gln-ethylenediamine 2,4-dinitrophenyl for PR3, and N-Suc-Ala-Ala-Pro-Phe-pNA for Cat G. Each group of tests was independently repeated at least 3 times, and IC50 values were calculated using SPSS 10.0.

CTSC = CTSC (Homo sapiens, UniProt P53634); test: Cellular thermal shift assay (CETSA) in U937 cells; type: binding; parameters: endogenous in cells; host or cells: U937; settings: DMSO control 49 °C
CTSC, sequence (P53634 25-463): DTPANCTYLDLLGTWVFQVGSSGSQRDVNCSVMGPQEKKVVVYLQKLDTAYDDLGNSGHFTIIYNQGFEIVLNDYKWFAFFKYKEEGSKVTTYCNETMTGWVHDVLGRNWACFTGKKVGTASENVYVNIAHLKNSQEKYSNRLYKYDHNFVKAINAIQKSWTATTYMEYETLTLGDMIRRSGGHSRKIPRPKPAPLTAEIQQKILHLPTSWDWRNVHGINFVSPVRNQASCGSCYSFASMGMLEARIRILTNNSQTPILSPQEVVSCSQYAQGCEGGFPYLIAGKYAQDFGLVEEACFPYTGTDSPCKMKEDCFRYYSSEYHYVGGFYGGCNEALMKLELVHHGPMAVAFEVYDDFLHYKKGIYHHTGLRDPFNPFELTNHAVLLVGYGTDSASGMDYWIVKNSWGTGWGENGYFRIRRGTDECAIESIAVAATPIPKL
Method: The Western blot experiments in this study were performed as described below. Cells in the logarithmic growth phase were collected in appropriate numbers according to different experimental purposes. After being thoroughly washed with phosphate-buffered saline and centrifuged, the cell pellets were resuspended in phosphate-buffered saline to obtain single-cell suspensions. Cells were fully lysed using RIPA buffer (Beyotime, P0013B) supplemented with EDTA-free protease and phosphatase inhibitor (Abcam, ab201120). Total cellular protein solutions were obtained after centrifugation to remove cell debris. The isolated proteins were quantified using the BeyoBCA protein assay kit (Beyotime, P0399M) following the operational protocol. The quantified protein samples were thoroughly mixed with protein loading buffer, boiled on a dry bath for 5 min, and then cooled to room temperature for Western blot analysis. […] Finally, enhanced chemiluminescent horseradish peroxidase substrate (Tanon Science & Technology Co., Ltd., Shanghai, China, 180-506) was used to visualize protein bands on a ChemiDoc XRS system (Bio-Rad Laboratories, Inc., Hercules, CA, USA), and the protein bands were quantified using Image Lab analysis software (Version 6.1) (Bio-Rad). […]

AIA model = test: Adjuvant-induced arthritis (AIA) model, disease severity; type: in vivo, Sprague-Dawley rats; settings: rat AIA
Method: Thirty 4-week-old male Sprague-Dawley rats (weighing 120–130 g) were randomly divided into 6 groups (5 rats per group) after 1 week of adaptive feeding, namely the normal group, model group, low-dose experimental group (15 mg/kg), medium-dose experimental group (30 mg/kg), high-dose experimental group (60 mg/kg), and positive control group (30 mg/kg). Starting from Day 0 of the experiment, rats in the administration groups and model group were injected intradermally with 0.1 mL of CFA into the left hind paw to induce AIA, while rats in the normal group were injected intradermally with an equal volume (0.1 mL) of normal saline as a control. After 13 consecutive days of feeding, rats treated with CFA successfully developed typical AIA symptoms. […] During the experiment, the body weight, mental state, activity ability, hair color changes, and paw appearance changes of the rats were observed and recorded daily. In addition, on Day 0 of the experiment (baseline period), the basic paw volume of all rats was accurately measured using a plethysmometer, which served as a reference standard for subsequent evaluation of inflammation severity. From Day 13 to Day 28 of the experiment, the paw volume of the rats was measured repeatedly every 3 days. The degree of paw swelling was quantified by calculating the change in paw volume relative to the baseline. Meanwhile, the arthritis index score was calculated based on the range of paw redness and swelling, the severity of swelling, and the degree of limb movement limitation, so as to comprehensively evaluate the inflammatory state. On Day 28 of the experiment (the end of the administration cycle), blood samples were collected via abdominal aortic puncture. The blood samples were centrifuged at 3000 rpm for 20 min, and the upper serum was collected and stored at −20 °C for subsequent detection. The rats were then sacrificed, and their ankle joint tissues were harvested for subsequent pathological section observation and analysis. The cytokine levels in serum were measured. The activity detection of CTSC and NSPs was carried out according to the above methods.

T1 sequence (P25774 115-331): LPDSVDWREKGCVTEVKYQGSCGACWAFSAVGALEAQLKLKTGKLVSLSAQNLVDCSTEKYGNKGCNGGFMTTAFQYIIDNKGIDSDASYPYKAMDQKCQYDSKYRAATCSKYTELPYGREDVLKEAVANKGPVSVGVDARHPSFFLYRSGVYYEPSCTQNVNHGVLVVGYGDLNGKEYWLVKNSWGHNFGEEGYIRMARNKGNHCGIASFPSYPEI

C[C@@H]1C[C@H]2OC(=O)[C@@]3(C)CCC[C@@](C)([C@@H]23)[C@@]1(O)CCc1ccoc1 [Marrubiin, marrubiin]
IC50 (CTSS): > 5 µM
temperature at which significant CTSC degradation occurred (CTSC; 10 μM): approximately 61 °C
temperature at which significant CTSC degradation occurred (CTSC; 20 μM): ~67 °C
clinical score vs AIA model group (AIA model; 60 mg/kg gavage, from day 16 onwards): significantly lower than those of AIA model group
body weight recovery (AIA model; 60 mg/kg, from day 16 onwards): most significant weight recovery effects
histopathology of ankle joints (H&E, Safranin O/Fast Green) (AIA model; different doses (15, 30, 60 mg/kg)): reduced the histopathological statement
volume and thickness of inflamed paws (AIA model; different doses (15, 30, 60 mg/kg), days 16 to 28): continuous reduction in volume and a gradual decrease in thickness
